Reference: patent US8058311B2, “Imaging 18F or 11C-labelled alkylthiophenyl guanidines” (Hammersmith Imanet Limited, priority 2005, dated 2011)

Test: Biodistribution: radioactivity in rat brain tissue after intravenous injection
Type: in vivo
Details: for signal relative to cerebellum in hippocampus and cortex: IV injection; for radioactivity in blood / radioactivity in cerebellum / radioactivity in entorhinal cortex / radioactivity in hippocampus / radioactivity in hypothalamus / radioactivity in inferior colliculi / radioactivity in occipital cortex / radioactivity in olfactory tubercles / radioactivity in plasma (shown for comparison) / radioactivity in pons with medulla / radioactivity in prefrontal cortex / radioactivity in somatosensory cortex / radioactivity in striata / radioactivity in superior colliculi / radioactivity in thalamus: intravenous injection
Experimental: N-(2-Chloro-5-(2-[^18F]fluoro-ethylthio))-phenyl-N′-(3-methylthio)-phenyl-N′-methylguanidine was prepared according to Example 4 (synthesis formulation ˜3% ethanol in 0.9% w/v saline solution) with a radiochemical purity of ˜99% and, at time of injection, the specific activity ranged from 4-16 GBq/nmol^−1. Biodistribution and blood data were from 11 adult male Sprague-Dawley rats (body weight range, 269 to 329 g; mean±S.E.=300±18 g). N-(2-Chloro-5-(2-[^18F]fluoro-ethylthio))-phenyl-N′-(3-methylthio)-phenyl-N′-methylguanidine was injected directly into the tail vein of each rat whilst under isoflurane anaesthesia. Each animal was then allowed to recover from anaesthesia. At designated times after injection, rats were sacrificed by cervical dislocation under anaesthesia and brain and body tissues were rapidly sampled.
The data were acquired using two syntheses. Rats were given an average of 86 MBq (85.3 MBq for first experimental day and 87.3 MBq for the second experimental day), in a volume of 0.20 ml (synthesis formulation ˜3% alcohol), via direct intravenous injection through the tail vein. The mass of co-injected N-(2-Chloro-5-(2-[^18F]fluoro-ethylthio))-phenyl-N′-(3-methylthio)-phenyl-N′-methylguanidine ranged from 0.7-2.9 nmol.kg^−1. Details of the methodology, together with processing and counting of the samples can be found in Hume et al., Nucl. Med. Biol. (1991) 18: 339-351. Data were normalised for injected radioactivity and body weight, giving: ‘uptake units’=(cpm.g^−1 wet weight tissue)·(injected cpm.g^−1 body weight)^−1 Results
Radioactivity concentration data are additionally collated in Tables 1 (peripheral tissue) and 2 (brain). As metabolite studies were not carried out, the proportion of the total radioactivity reflecting label associated with parent N-(2-Chloro-5-(2-[^18F]fluoro-ethylthio))-phenyl-N′-(3-methylthio)-phenyl-N′-methylguanidine is not known. Note, Blood and plasma samples were collected post-mortem from the heart ventricle.

CSc1cccc(N(C)C(=N)Nc2cc(SCC[18F])ccc2Cl)c1 [N-(2-Chloro-5-(2-[^18F]fluoro-ethylthio))-phenyl-N′-(3-methylthio)-phenyl-N′-methylguanidine]
initial uptake in all brain tissues (2 minutes after IV injection): ~4 uptake units | activity in all brain tissues (90 minutes after radioligand injection): ~0.4 uptake units | signal relative to cerebellum in hippocampus and cortex (by 90 minutes): 1 | signal relative to cerebellum in hippocampus and cortex (reached over the first 40 minutes): 1.3 | signal relative to cerebellum in hippocampus and cortex (start of the first 40 minutes): ~0.8 | rat brain uptake of radioactivity (earliest sample time (2 min) after IV injection): high uptake of radioactivity | radioactivity in blood (2 min, n = 1): 0.288 uptake units | radioactivity in cerebellum (2 min, n = 1): 4.204 uptake units | radioactivity in entorhinal cortex (2 min, n = 1): 2.766 uptake units | radioactivity in hippocampus (2 min, n = 1): 2.864 uptake units | radioactivity in hypothalamus (2 min, n = 1): 3.397 uptake units | radioactivity in inferior colliculi (2 min, n = 1): 6.716 uptake units | radioactivity in occipital cortex (2 min, n = 1): 4.008 uptake units | radioactivity in olfactory tubercles (2 min, n = 1): 2.826 uptake units | radioactivity in plasma (shown for comparison) (2 min, n = 1): 0.264 uptake units | radioactivity in pons with medulla (2 min, n = 1): 3.678 uptake units | radioactivity in prefrontal cortex (2 min, n = 1): 3.808 uptake units | radioactivity in somatosensory cortex (2 min, n = 1): 3.531 uptake units | radioactivity in striata (2 min, n = 1): 2.306 uptake units | radioactivity in superior colliculi (2 min, n = 1): 4.977 uptake units | radioactivity in thalamus (2 min, n = 1): 4.460 uptake units | radioactivity in blood (5 min, n = 1): 0.261 uptake units | radioactivity in cerebellum (5 min, n = 1): 2.761 uptake units | radioactivity in entorhinal cortex (5 min, n = 1): 2.442 uptake units | radioactivity in hippocampus (5 min, n = 1): 2.250 uptake units | radioactivity in hypothalamus (5 min, n = 1): 2.443 uptake units | radioactivity in inferior colliculi (5 min, n = 1): 3.292 uptake units | radioactivity in occipital cortex (5 min, n = 1): 2.883 uptake units | radioactivity in olfactory tubercles (5 min, n = 1): 3.062 uptake units | radioactivity in plasma (shown for comparison) (5 min, n = 1): 0.135 uptake units | radioactivity in pons with medulla (5 min, n = 1): 2.877 uptake units | radioactivity in prefrontal cortex (5 min, n = 1): 3.099 uptake units | radioactivity in somatosensory cortex (5 min, n = 1): 2.772 uptake units | radioactivity in striata (5 min, n = 1): 1.817 uptake units | radioactivity in superior colliculi (5 min, n = 1): 3.541 uptake units | radioactivity in thalamus (5 min, n = 1): 2.566 uptake units | radioactivity in blood (10 min, n = 2): 0.146 uptake units | radioactivity in cerebellum (10 min, n = 2): 1.451 uptake units | radioactivity in entorhinal cortex (10 min, n = 2): 1.404 uptake units | radioactivity in hippocampus (10 min, n = 2): 1.396 uptake units | radioactivity in hypothalamus (10 min, n = 2): 1.275 uptake units | radioactivity in inferior colliculi (10 min, n = 2): 1.539 uptake units | radioactivity in occipital cortex (10 min, n = 2): 1.651 uptake units | radioactivity in olfactory tubercles (10 min, n = 2): 1.300 uptake units | radioactivity in plasma (shown for comparison) (10 min, n = 2): 0.102 uptake units | radioactivity in pons with medulla (10 min, n = 2): 1.530 uptake units | radioactivity in prefrontal cortex (10 min, n = 2): 1.649 uptake units | radioactivity in somatosensory cortex (10 min, n = 2): 1.588 uptake units | radioactivity in striata (10 min, n = 2): 1.433 uptake units | radioactivity in superior colliculi (10 min, n = 2): 1.677 uptake units | radioactivity in thalamus (10 min, n = 2): 1.353 uptake units | radioactivity in blood (30 min, n = 3, mean ± SD): 0.269 ± 0.042 uptake units | radioactivity in cerebellum (30 min, n = 3, mean ± SD): 0.919 ± 0.110 uptake units | radioactivity in entorhinal cortex (30 min, n = 3, mean ± SD): 0.941 ± 0.086 uptake units | radioactivity in hippocampus (30 min, n = 3, mean ± SD): 1.088 ± 0.142 uptake units | radioactivity in hypothalamus (30 min, n = 3, mean ± SD): 1.076 ± 0.250 uptake units | radioactivity in inferior colliculi (30 min, n = 3, mean ± SD): 0.841 ± 0.084 uptake units | radioactivity in occipital cortex (30 min, n = 3, mean ± SD): 1.041 ± 0.067 uptake units | radioactivity in olfactory tubercles (30 min, n = 3, mean ± SD): 0.981 ± 0.235 uptake units | radioactivity in plasma (shown for comparison) (30 min, n = 3, mean ± SD): 0.229 ± 0.047 uptake units | radioactivity in pons with medulla (30 min, n = 3, mean ± SD): 1.110 ± 0.129 uptake units | radioactivity in prefrontal cortex (30 min, n = 3, mean ± SD): 1.168 ± 0.042 uptake units | radioactivity in somatosensory cortex (30 min, n = 3, mean ± SD): 1.037 ± 0.103 uptake units | radioactivity in striata (30 min, n = 3, mean ± SD): 1.101 ± 0.202 uptake units | radioactivity in superior colliculi (30 min, n = 3, mean ± SD): 1.086 ± 0.286 uptake units | radioactivity in thalamus (30 min, n = 3, mean ± SD): 1.415 ± 0.203 uptake units | radioactivity in blood (60 min, n = 3, mean ± SD): 0.229 ± 0.068 uptake units | radioactivity in cerebellum (60 min, n = 3, mean ± SD): 0.454 ± 0.082 uptake units | radioactivity in entorhinal cortex (60 min, n = 3, mean ± SD): 0.502 ± 0.095 uptake units | radioactivity in hippocampus (60 min, n = 3, mean ± SD): 0.548 ± 0.119 uptake units | radioactivity in hypothalamus (60 min, n = 3, mean ± SD): 0.533 ± 0.115 uptake units | radioactivity in inferior colliculi (60 min, n = 3, mean ± SD): 0.456 ± 0.079 uptake units | radioactivity in occipital cortex (60 min, n = 3, mean ± SD): 0.541 ± 0.124 uptake units | radioactivity in olfactory tubercles (60 min, n = 3, mean ± SD): 0.504 ± 0.062 uptake units | radioactivity in plasma (shown for comparison) (60 min, n = 3, mean ± SD): 0.222 ± 0.055 uptake units | radioactivity in pons with medulla (60 min, n = 3, mean ± SD): 0.551 ± 0.143 uptake units | radioactivity in prefrontal cortex (60 min, n = 3, mean ± SD): 0.519 ± 0.105 uptake units | radioactivity in somatosensory cortex (60 min, n = 3, mean ± SD): 0.517 ± 0.107 uptake units | radioactivity in striata (60 min, n = 3, mean ± SD): 0.481 ± 0.136 uptake units | radioactivity in superior colliculi (60 min, n = 3, mean ± SD): 0.486 ± 0.101 uptake units | radioactivity in thalamus (60 min, n = 3, mean ± SD): 0.553 ± 0.108 uptake units | radioactivity in blood (90 min, n = 1): 0.180 uptake units | radioactivity in cerebellum (90 min, n = 1): 0.366 uptake units | radioactivity in entorhinal cortex (90 min, n = 1): 0.383 uptake units | radioactivity in hippocampus (90 min, n = 1): 0.391 uptake units | radioactivity in hypothalamus (90 min, n = 1): 0.466 uptake units | radioactivity in inferior colliculi (90 min, n = 1): 0.306 uptake units | radioactivity in occipital cortex (90 min, n = 1): 0.423 uptake units | radioactivity in olfactory tubercles (90 min, n = 1): 0.504 uptake units | radioactivity in plasma (shown for comparison) (90 min, n = 1): 0.163 uptake units | radioactivity in pons with medulla (90 min, n = 1): 0.406 uptake units | radioactivity in prefrontal cortex (90 min, n = 1): 0.414 uptake units | radioactivity in somatosensory cortex (90 min, n = 1): 0.376 uptake units | radioactivity in striata (90 min, n = 1): 0.485 uptake units | radioactivity in superior colliculi (90 min, n = 1): 0.386 uptake units | radioactivity in thalamus (90 min, n = 1): 0.551 uptake units
